Data from the supplement of paper PMC10307832.

Assays:
Experiment in all cases: relative viability (nuclei count vs DMSO), 5 days (fraction); higher = more cells survive
Pazopanib + Palbociclib = compound: Cc1ccc(Nc2nccc(N(C)c3ccc4c(C)n(C)nc4c3)n2)cc1S(N)(=O)=O [Pazopanib] + CC(=O)c1c(C)c2cnc(Nc3ccc(N4CCNCC4)cn3)nc2n(C2CCCC2)c1=O [Palbociclib] (partner 0.5 µM)
Summary of the method: (§1)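 Dosing by pin tool came one day after lung cancer cell lines were seeded in 1536-well plates, using either one drug or a fixed anchor-drug dose plus five library-drug doses (not always all listed) in √10 steps. After 5 days, nuclei were counted on 4× images. Relative viability is treated-well nuclei count divided by vehicle-well nuclei count, and values are medians of duplicate plates.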

Pazopanib + AZD7762 = compound: Cc1ccc(Nc2nccc(N(C)c3ccc4c(C)n(C)nc4c3)n2)cc1S(N)(=O)=O [Pazopanib] + NC(=O)Nc1cc(-c2cccc(F)c2)sc1C(=O)N[C@H]1CCCNC1 [AZD7762] (partner 0.2 µM)
Summary of the method: as §1

Ponatinib + Alpelisib = compound: Cc1ccc(C(=O)Nc2ccc(CN3CCN(C)CC3)c(C(F)(F)F)c2)cc1C#Cc1cnc2cccnn12 [Ponatinib] + Cc1nc(NC(=O)N2CCC[C@H]2C(N)=O)sc1-c1ccnc(C(C)(C)C(F)(F)F)c1 [Alpelisib] (partner 2 µM)
Summary of the method: as §1

Pazopanib + Bortezomib = compound: Cc1ccc(Nc2nccc(N(C)c3ccc4c(C)n(C)nc4c3)n2)cc1S(N)(=O)=O [Pazopanib] + CC(C)C[C@H](NC(=O)[C@H](Cc1ccccc1)NC(=O)c1cnccn1)B(O)O [Bortezomib] (partner 0.002 µM)
Summary of the method: as §1

Row | Cell Line | relative viability (Pazopanib + Palbociclib; first compound 0.01 µM) | relative viability (Pazopanib + Palbociclib; first compound 0.03162 µM) | relative viability (Pazopanib + Palbociclib; first compound 0.1 µM) | relative viability (Pazopanib + Palbociclib; first compound 0.3162 µM) | relative viability (Pazopanib + Palbociclib; first compound 1 µM) | relative viability (Pazopanib + AZD7762; first compound 0.01 µM) | relative viability (Pazopanib + AZD7762; first compound 0.03162 µM) | relative viability (Pazopanib + AZD7762; first compound 0.1 µM) | relative viability (Pazopanib + AZD7762; first compound 0.3162 µM) | relative viability (Pazopanib + AZD7762; first compound 1 µM) | relative viability (Ponatinib + Alpelisib; first compound 0.002 µM) | relative viability (Ponatinib + Alpelisib; first compound 0.006325 µM) | relative viability (Ponatinib + Alpelisib; first compound 0.06325 µM) | relative viability (Ponatinib + Alpelisib; first compound 0.2 µM) | relative viability (Pazopanib + Bortezomib; first compound 0.01 µM) | relative viability (Pazopanib + Bortezomib; first compound 0.03162 µM) | relative viability (Pazopanib + Bortezomib; first compound 0.1 µM) | relative viability (Pazopanib + Bortezomib; first compound 0.3162 µM) | relative viability (Pazopanib + Bortezomib; first compound 1 µM)
1 | NCI-H2342 | 0.538 | 0.501 | 0.496 | 0.489 | 0.515 | 0.455 | 0.484 | 0.562 | 0.521 | 0.474 |  |  |  |  |  |  |  |  | 
2 | HCC-15 | 0.7 | 0.708 | 0.729 | 0.752 | 0.788 | 1.3 | 1.15 | 1.31 | 1.22 | 1.15 | 0.82 | 0.906 | 0.988 | 0.805 | 1.05 | 1.18 | 1.04 | 0.976 | 1.05
3 | A-427 | 0.536 | 0.565 | 0.476 | 0.554 | 0.526 | 0.864 | 0.786 | 0.825 | 0.784 | 0.716 | 1.08 | 1.06 | 1.07 | 0.919 | 0.934 | 1.02 | 0.929 | 0.922 | 1.02
4 | NCI-H2228 | 0.892 | 0.75 | 0.848 | 0.756 | 0.779 |  |  |  |  |  | 0.677 | 0.788 | 1.13 | 0.75 | 0.954 | 1.07 | 0.866 | 0.926 | 0.834
5 | NCI-H1734 | 0.33 | 0.369 | 0.353 | 0.378 | 0.344 | 0.519 | 0.561 | 0.555 | 0.689 | 0.623 | 0.594 | 0.721 | 0.741 | 0.614 | 0.846 | 0.897 | 1.01 | 0.996 | 0.935
6 | NCI-H2347 | 0.422 | 0.452 | 0.406 | 0.449 | 0.498 | 0.682 | 0.711 | 0.773 | 0.822 | 0.787 | 1 | 1.1 | 1.18 | 1.02 |  |  | 1.23 | 0.95 | 0.997
7 | PC-3 [JPC-3] |  | 0.556 | 0.341 | 0.522 | 0.519 |  | 0.742 | 0.725 | 0.926 | 0.937 | 1 | 1.09 | 1.02 | 1.09 | 0.957 | 0.948 | 0.814 | 0.868 | 0.774
8 | NCI-H1915 | 0.508 | 0.525 | 0.524 | 0.541 | 0.536 | 0.716 | 0.658 | 0.667 | 0.68 | 0.616 | 0.976 | 1.03 | 1.06 | 0.961 | 0.936 | 0.963 | 0.983 | 0.972 | 0.884
9 | NCI-H1666 | 0.636 | 0.604 | 0.607 | 0.694 | 0.667 | 0.871 | 0.828 | 0.788 | 0.823 | 0.848 | 0.864 | 1.04 | 1.05 | 1.07 | 0.707 | 0.829 | 0.77 | 1.01 | 1.35
10 | HCC-366 | 0.36 | 0.422 | 0.449 | 0.386 | 0.353 | 0.321 | 0.202 | 0.314 | 0.276 | 0.238 | 0.375 | 0.43 | 0.69 | 0.376 | 0.954 | 1.07 | 1.02 | 0.973 | 1.09
11 | NCI-H1395 | 0.572 | 0.647 | 0.659 | 0.6 | 0.625 | 0.36 | 0.366 | 0.389 | 0.38 | 0.387 |  | 1.03 | 1.09 | 0.804 |  |  |  |  | 
12 | NCI-H727 | 0.662 |  | 0.634 | 0.597 | 0.718 | 0.618 |  | 0.609 | 0.663 | 0.562 | 0.599 | 0.533 | 0.72 | 0.468 | 0.791 | 0.938 | 0.98 | 0.928 | 1.11
13 | RERF-LC-KJ | 1.11 | 1.03 | 1.07 | 1.09 | 1.04 | 0.796 | 0.915 | 0.916 | 1.02 | 0.992 | 0.904 | 0.739 | 1.02 | 0.889 | 1.03 | 1.05 | 1.05 | 1.16 | 1.04
14 | Calu-6 |  |  |  |  |  |  |  |  |  |  | 0.956 | 1.04 | 1.02 | 0.685 | 0.928 | 1.06 | 1.04 | 0.932 | 0.957
15 | LC-2-ad | 0.552 | 0.459 | 0.56 | 0.45 | 0.487 | 0.834 | 0.835 | 0.906 | 0.92 | 0.85 | 0.832 | 0.792 | 0.648 | 0.552 | 0.977 | 1.08 | 1.02 | 0.956 | 1.12
16 | CAL-12T | 0.487 | 0.687 | 0.348 | 0.486 | 0.577 | 0.594 | 0.579 | 0.527 | 0.568 | 0.652 | 1.03 | 1.12 | 1.46 | 0.979 | 1.05 | 1.01 | 0.843 | 1.04 | 1.35
17 | SK-LU-1 | 0.393 | 0.389 | 0.411 | 0.425 | 0.455 |  |  |  |  |  | 0.945 | 1.14 | 0.952 | 0.646 | 1.15 | 1.08 | 1.23 | 1.37 | 1.27
18 | NCI-H1650 | 0.333 | 0.433 | 0.375 | 0.349 | 0.393 |  |  |  |  |  |  |  |  |  | 0.204 | 0.212 | 0.235 | 0.191 | 0.21
19 | BEN | 0.447 | 0.467 | 0.498 | 0.506 | 0.482 | 0.592 | 0.75 | 0.607 | 0.775 | 0.786 | 0.948 | 0.977 | 1.08 | 0.916 | 0.581 | 0.725 | 0.76 | 0.917 | 0.874
